Source: ChEMBL document CHEMBL5696441 (Nat Chem Biol, 2011)

What was measured:
[1] = system: Tyrosine-protein kinase ABL1 (Homo sapiens), P00519 [T315I]; experiment: Inhibition of human ABL1 T315I mutant assessed as residual activity at 1 uM using Poly(Ala,Glu,Lys,Tyr)6:2:5:1 as substrate in presence of 33P-ATP by ProQinase assay relative to control
[2] = system: Epidermal growth factor receptor (Homo sapiens), P00533 [L861Q]; experiment: Inhibition of human EGFR L861Q mutant assessed as residual activity at 1 uM using PolyEY as substrate in presence of 33P-ATP by ProQinase assay relative to control
[3] = system: Fibroblast growth factor receptor 3 (Homo sapiens), P22607 [G697C]; experiment: Inhibition of FGFR3 G697C mutant (unknown origin) assessed as remaining activity at 1 uM by Kinome scan method relative to control
[4] = biological target: Interferon-induced, double-stranded RNA-activated protein kinase (Homo sapiens) (UniProt P19525); experiment: Inhibition of human EIF2AK2 assessed as residual activity at 1 uM using RB-CTF as substrate in presence of 33P-ATP by ProQinase assay relative to control
Chain of Interferon-induced, double-stranded RNA-activated protein kinase (Homo sapiens) (P19525 whole entry): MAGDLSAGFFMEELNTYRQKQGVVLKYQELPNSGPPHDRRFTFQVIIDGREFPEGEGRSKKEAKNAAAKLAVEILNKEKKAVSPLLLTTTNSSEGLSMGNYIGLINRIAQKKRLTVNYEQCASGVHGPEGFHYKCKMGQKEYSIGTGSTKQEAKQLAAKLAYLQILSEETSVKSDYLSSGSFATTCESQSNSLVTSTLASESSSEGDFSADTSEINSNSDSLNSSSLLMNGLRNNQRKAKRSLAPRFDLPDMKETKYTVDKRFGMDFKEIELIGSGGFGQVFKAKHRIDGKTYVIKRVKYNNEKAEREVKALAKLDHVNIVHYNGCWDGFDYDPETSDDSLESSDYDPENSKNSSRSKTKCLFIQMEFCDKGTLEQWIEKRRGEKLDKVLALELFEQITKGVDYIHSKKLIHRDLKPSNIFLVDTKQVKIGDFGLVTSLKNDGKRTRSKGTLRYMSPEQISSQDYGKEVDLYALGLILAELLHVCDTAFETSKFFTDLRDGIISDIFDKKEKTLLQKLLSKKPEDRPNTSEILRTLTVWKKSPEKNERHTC

[5] = biological target: Cyclin-dependent kinase 4/cyclin D1 (Homo sapiens) (UniProt P11802+P24385); experiment: Inhibition of human CDK4/CyclinD1 assessed as residual activity at 1 uM using RBER-CHKtide as substrate in presence of 33P-ATP by ProQinase assay relative to control; type: protein-complex assay
[6] = biological target: Serine/threonine-protein kinase 25 (Homo sapiens) (UniProt O00506); experiment: Inhibition of human STK25 assessed as residual activity at 1 uM using casein as substrate in presence of 33P-ATP by ProQinase assay relative to control
[7] = biological target: Serine/threonine-protein kinase TBK1 (Homo sapiens) (UniProt Q9UHD2); experiment: Inhibition of TBK1 (unknown origin) assessed as remaining activity at 1 uM by Kinome scan method relative to control
[8] = system: Mast/stem cell growth factor receptor Kit (Homo sapiens), P10721 [V559D,T670I]; experiment: Inhibition of KIT V559D/T670I mutant (unknown origin) assessed as remaining activity at 1 uM by Kinome scan method relative to control
[9] = biological target: Ephrin type-A receptor 7 (Homo sapiens) (UniProt Q15375); experiment: Inhibition of human EPHA7 assessed as residual activity at 1 uM using polyEy as substrate in presence of 33P-ATP by ProQinase assay relative to control
[10] = biological target: Inhibitor of nuclear factor kappa-B kinase subunit beta (Homo sapiens) (UniProt O14920); experiment: Inhibition of IKK-beta (unknown origin) assessed as remaining activity at 1 uM by Kinome scan method relative to control
Chain of Inhibitor of nuclear factor kappa-B kinase subunit beta (Homo sapiens) (O14920 whole entry): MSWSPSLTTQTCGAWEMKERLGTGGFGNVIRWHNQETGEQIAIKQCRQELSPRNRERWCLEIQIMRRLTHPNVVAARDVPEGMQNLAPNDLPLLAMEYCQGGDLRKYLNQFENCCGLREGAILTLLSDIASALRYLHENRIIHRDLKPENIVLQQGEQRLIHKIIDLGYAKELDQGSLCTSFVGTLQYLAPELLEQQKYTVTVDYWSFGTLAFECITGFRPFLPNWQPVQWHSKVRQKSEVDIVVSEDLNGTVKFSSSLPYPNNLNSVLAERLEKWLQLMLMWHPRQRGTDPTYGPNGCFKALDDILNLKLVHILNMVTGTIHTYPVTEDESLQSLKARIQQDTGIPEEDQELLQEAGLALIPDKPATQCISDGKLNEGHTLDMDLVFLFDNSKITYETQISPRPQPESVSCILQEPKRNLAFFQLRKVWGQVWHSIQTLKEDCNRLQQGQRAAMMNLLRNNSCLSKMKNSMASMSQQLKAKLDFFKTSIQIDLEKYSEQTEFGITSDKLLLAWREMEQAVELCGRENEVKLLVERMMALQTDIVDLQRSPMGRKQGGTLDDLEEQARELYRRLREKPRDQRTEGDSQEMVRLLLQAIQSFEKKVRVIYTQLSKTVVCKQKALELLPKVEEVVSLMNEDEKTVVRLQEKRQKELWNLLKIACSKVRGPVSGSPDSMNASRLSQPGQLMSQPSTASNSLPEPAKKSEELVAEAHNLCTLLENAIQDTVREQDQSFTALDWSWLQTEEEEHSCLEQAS

[11] = system: Hepatocyte growth factor receptor (Homo sapiens), P08581 [Y1235D]; experiment: Inhibition of human MET Y1235D mutant assessed as residual activity at 1 uM using PolyEY as substrate in presence of 33P-ATP by ProQinase assay relative to control
[12] = system: Phosphatidylinositol 4,5-bisphosphate 3-kinase catalytic subunit alpha isoform (Homo sapiens), P42336 [H1047Y]; experiment: Inhibition of PIK3CA H1047Y mutant (unknown origin) assessed as remaining activity at 1 uM by Kinome scan method relative to control
Chain of Phosphatidylinositol 4,5-bisphosphate 3-kinase catalytic subunit alpha isoform (Homo sapiens), P42336 [H1047Y] (P42336 whole entry H1047Y, canonical isoform): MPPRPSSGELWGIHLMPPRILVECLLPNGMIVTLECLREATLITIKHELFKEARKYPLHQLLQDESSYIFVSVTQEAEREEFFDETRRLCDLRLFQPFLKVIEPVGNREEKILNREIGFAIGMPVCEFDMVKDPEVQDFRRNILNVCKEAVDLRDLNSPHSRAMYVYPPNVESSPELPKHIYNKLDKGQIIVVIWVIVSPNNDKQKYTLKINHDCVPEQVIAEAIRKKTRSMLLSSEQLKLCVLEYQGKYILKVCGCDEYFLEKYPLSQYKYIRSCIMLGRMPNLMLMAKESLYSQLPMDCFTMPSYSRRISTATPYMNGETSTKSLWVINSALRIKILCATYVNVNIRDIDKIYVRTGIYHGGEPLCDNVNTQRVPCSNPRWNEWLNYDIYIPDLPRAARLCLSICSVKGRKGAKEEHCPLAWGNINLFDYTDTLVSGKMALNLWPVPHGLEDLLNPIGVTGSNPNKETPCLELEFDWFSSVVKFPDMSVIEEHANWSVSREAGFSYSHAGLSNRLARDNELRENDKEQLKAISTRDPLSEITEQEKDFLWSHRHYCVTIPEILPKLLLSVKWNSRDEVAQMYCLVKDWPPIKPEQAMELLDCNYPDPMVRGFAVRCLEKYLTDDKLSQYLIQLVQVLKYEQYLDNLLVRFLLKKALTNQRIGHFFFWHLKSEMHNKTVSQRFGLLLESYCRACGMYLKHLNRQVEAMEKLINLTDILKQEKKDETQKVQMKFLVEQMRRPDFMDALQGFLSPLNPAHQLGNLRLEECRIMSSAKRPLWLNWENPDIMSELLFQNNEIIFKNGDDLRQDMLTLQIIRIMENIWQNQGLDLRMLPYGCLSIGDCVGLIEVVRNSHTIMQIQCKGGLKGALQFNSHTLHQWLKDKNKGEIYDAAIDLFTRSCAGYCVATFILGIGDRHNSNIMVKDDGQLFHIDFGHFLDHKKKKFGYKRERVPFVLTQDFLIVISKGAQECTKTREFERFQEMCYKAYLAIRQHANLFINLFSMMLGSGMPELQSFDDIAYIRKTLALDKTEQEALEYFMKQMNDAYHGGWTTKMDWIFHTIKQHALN

[13] = biological target: Tyrosine-protein kinase Fyn (Homo sapiens) (UniProt P06241); experiment: Inhibition of human FYN assessed as residual activity at 1 uM using polyEY as substrate in presence of 33P-ATP by ProQinase assay relative to control
[14] = biological target: Receptor tyrosine-protein kinase erbB-3 (Homo sapiens) (UniProt P21860); experiment: Inhibition of ERBB3 (unknown origin) assessed as remaining activity at 1 uM by Kinome scan method relative to control
[15] = Anti-inflammatory activity against human derived medium respond PBMC cells assessed as inhibition in stimulated IL-10 cytokine release incubated for 2 hrs in the presence of LPS/SEB/aCD28 by Luminex based sandwich immunoassay; type: functional, cell-based
[16] = biological target: Serine/threonine-protein kinase Sgk1 (Homo sapiens) (UniProt O00141); experiment: Inhibition of human SGK1 assessed as residual activity at 1 uM using RBER-GSK3(14-27) as substrate in presence of 33P-ATP by ProQinase assay relative to control
[17] = biological target: Serine/threonine-protein kinase PRP4 homolog (Homo sapiens) (UniProt Q13523); experiment: Inhibition of PRP4 (unknown origin) assessed as remaining activity at 1 uM by Kinome scan method relative to control
[18] = biological target: Mitogen-activated protein kinase kinase kinase 10 (Homo sapiens) (UniProt Q02779); experiment: Inhibition of human MAP3K10 assessed as residual activity at 1 uM using histon H2B as substrate in presence of 33P-ATP by ProQinase assay relative to control
[19] = biological target: Fibroblast growth factor receptor 2 (Homo sapiens) (UniProt P21802); experiment: Inhibition of human FGFR2 assessed as residual activity at 1 uM using PolyEY as substrate in presence of 33P-ATP by ProQinase assay relative to control
Chain of Fibroblast growth factor receptor 2 (Homo sapiens) (P21802 22-821 limits assumed): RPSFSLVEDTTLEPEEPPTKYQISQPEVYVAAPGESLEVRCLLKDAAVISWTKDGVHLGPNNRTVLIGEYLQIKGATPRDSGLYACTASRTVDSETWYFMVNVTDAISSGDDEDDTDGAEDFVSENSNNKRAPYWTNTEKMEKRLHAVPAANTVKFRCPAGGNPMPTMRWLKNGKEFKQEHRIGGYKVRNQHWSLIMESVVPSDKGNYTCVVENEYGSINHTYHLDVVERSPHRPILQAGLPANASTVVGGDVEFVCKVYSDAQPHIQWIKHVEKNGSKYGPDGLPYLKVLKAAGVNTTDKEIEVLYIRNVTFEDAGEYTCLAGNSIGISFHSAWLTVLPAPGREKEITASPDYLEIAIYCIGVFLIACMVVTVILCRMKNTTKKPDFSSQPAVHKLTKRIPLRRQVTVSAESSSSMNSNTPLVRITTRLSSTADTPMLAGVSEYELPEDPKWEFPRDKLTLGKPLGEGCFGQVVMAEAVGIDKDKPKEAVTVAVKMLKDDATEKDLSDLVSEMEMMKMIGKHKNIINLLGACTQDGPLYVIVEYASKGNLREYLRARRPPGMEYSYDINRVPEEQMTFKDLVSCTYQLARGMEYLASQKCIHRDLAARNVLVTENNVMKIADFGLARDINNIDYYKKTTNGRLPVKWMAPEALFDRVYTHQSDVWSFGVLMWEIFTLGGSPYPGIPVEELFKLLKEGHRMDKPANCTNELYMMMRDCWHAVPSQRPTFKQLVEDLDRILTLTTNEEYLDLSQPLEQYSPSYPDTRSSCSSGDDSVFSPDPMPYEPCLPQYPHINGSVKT

[20] = biological target: Serine/threonine-protein kinase SIK1 (Homo sapiens) (UniProt P57059); experiment: Inhibition of SIK (unknown origin) assessed as remaining activity at 1 uM by Kinome scan method relative to control
Chain of Serine/threonine-protein kinase SIK1 (Homo sapiens) (P57059 whole entry): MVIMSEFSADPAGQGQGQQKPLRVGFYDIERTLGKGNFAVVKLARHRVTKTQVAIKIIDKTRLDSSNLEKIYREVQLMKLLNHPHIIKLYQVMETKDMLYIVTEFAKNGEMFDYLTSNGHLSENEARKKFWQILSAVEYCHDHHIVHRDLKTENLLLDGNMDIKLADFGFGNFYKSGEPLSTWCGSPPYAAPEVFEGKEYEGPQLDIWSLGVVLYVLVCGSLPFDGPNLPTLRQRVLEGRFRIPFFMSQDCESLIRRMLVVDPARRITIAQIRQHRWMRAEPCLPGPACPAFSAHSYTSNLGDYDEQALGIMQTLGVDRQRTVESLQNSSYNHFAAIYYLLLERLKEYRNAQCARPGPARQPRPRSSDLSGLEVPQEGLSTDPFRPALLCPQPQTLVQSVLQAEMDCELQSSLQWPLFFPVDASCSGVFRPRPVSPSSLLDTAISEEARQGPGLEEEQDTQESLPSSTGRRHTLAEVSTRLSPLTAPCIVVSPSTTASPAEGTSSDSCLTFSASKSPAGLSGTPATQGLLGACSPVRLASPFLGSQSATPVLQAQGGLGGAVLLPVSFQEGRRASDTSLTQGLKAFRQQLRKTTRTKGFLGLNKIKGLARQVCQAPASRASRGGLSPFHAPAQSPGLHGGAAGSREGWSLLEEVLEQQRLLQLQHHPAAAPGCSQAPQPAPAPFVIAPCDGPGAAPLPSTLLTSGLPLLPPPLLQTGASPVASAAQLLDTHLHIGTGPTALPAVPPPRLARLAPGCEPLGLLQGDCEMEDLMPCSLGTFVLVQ

[21] = biological target: Mitogen-activated protein kinase kinase kinase kinase 5 (Homo sapiens) (UniProt Q9Y4K4); experiment: Inhibition of human MAP4K5 assessed as residual activity at 1 uM using casein as substrate in presence of 33P-ATP by ProQinase assay relative to control
[22] = biological target: Casein kinase I isoform alpha (Homo sapiens) (UniProt P48729); experiment: Inhibition of human CK1alpha1 assessed as residual activity at 1 uM using casein as substrate in presence of 33P-ATP by ProQinase assay relative to control
[23] = Anti-inflammatory activity against human derived medium respond PBMC cells assessed as inhibition in stimulated IL-6 cytokine release incubated for 2 hrs in the presence of LPS/SEB/aCD28 by Luminex based sandwich immunoassay; type: functional, cell-based
[24] = biological target: Mitogen-activated protein kinase 14 (Homo sapiens) (UniProt Q16539); experiment: Inhibition of human p38alpha assessed as residual activity at 1 uM using ATF2 as substrate in presence of 33P-ATP by ProQinase assay relative to control
[25] = biological target: Serine/threonine-protein kinase 17B (Homo sapiens) (UniProt O94768); experiment: Inhibition of DRAK2 (unknown origin) assessed as remaining activity at 1 uM by Kinome scan method relative to control
Chain of Serine/threonine-protein kinase 17B (Homo sapiens) (O94768 whole entry): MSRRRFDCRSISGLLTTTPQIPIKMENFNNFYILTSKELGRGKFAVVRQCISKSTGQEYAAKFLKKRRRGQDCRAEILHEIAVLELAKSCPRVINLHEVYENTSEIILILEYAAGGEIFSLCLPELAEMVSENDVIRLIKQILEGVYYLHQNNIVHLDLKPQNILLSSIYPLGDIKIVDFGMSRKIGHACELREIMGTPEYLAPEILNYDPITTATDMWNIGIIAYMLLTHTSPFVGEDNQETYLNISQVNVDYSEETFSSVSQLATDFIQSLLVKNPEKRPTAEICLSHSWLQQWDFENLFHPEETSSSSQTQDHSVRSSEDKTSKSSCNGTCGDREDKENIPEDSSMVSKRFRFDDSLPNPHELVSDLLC

[26] = biological target: Mitogen-activated protein kinase 9 (Homo sapiens) (UniProt P45984); experiment: Inhibition of JNK2 (unknown origin) assessed as remaining activity at 1 uM by Kinome scan method relative to control
[27] = biological target: Tyrosine-protein kinase Blk (Homo sapiens) (UniProt P51451); experiment: Inhibition of human BLK assessed as residual activity at 1 uM using polyEY as substrate in presence of 33P-ATP by ProQinase assay relative to control
Chain of Tyrosine-protein kinase Blk (Homo sapiens) (P51451 2-505 limits assumed): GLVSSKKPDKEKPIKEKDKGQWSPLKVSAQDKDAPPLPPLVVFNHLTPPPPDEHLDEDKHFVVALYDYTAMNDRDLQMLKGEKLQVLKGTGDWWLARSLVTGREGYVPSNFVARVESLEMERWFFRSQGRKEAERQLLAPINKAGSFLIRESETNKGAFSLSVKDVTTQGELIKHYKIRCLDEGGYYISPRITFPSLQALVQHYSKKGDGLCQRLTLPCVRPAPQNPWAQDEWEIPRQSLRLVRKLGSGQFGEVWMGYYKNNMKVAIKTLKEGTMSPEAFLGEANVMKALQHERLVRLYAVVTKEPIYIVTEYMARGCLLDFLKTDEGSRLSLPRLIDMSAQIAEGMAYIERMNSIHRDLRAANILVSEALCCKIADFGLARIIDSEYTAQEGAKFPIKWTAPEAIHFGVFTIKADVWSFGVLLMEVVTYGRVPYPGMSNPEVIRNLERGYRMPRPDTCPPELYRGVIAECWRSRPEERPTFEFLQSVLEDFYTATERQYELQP

[28] = biological target: Protein kinase C delta type (Homo sapiens) (UniProt Q05655); experiment: Inhibition of human PKCdelta assessed as residual activity at 1 uM using 3xChocktide-PKC(19-31) as substrate in presence of 33P-ATP by ProQinase assay relative to control

`O=C1c2ccc(Nc3ccc(F)cc3F)cc2CCc2ccc(OC[C@H](O)CO)cc21` [Skepinone-L] gave an Activity [1] of 93%, an Activity [2] of 94% and an Activity [3] of 87%. The Activity [4] was 86%, the Activity [5] was 92% and the Activity [6] was 100%. It also gave an Activity [7] of 100%, an Activity [8] of 94% and an Activity [9] of 109%. It also gave an Activity [10] of 100%, an Activity [11] of 114% and an Activity [12] of 100%. For the same compound, the Activity [13] was 124%, the Activity [14] was 100% and the IC50 [15] was 0.06 µM. It also gave an Activity [16] of 90%, an Activity [17] of 100% and an Activity [18] of 101%. The Activity [19] was 125%, the Activity [20] was 100% and the Activity [21] was 84%. It also gave an Activity [22] of 97%, an IC50 [23] of 0.78 µM and an Activity [24] of 0%. The Activity [25] was 99%, the Activity [26] was 100% and the Activity [27] was 107%. The Activity [28] was 104%.
